Reference: the supplement of paper PMC8671470

What was measured:
Conditions in all cases: 72 h
MV4-11 [1] = test system: MV4-11
How it was run: (§1)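 The IC50 was read from log-logistic dose–response fits. Fifteen myeloid leukaemia lines were exposed for 72 h at 37 °C with 5% CO2 to five tenfold doses from 1 to 10,000 nM in duplicate. ATP luminescence, normalised to vehicle and to a 10 µM positive control, was fitted with four parameters.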

K-562 [2] = test system: K-562
How it was run: as §1

NOMO-1 [3] = test system: NOMO-1
How it was run: as §1

ML-2 [4] = test system: ML-2
How it was run: as §1

KCL-22 [5] = test system: KCL-22
How it was run: as §1

KG-1 [6] = test system: KG-1
How it was run: as §1

LAMA-84 [7] = test system: LAMA-84
How it was run: as §1

KU-812 [8] = test system: KU-812
How it was run: as §1

SHI-1 [9] = test system: SHI-1
How it was run: as §1

Mono-Mac-6 [10] = test system: Mono-Mac-6
How it was run: as §1

BV-173 [11] = test system: BV-173
How it was run: as §1

HL-60 [12] = test system: HL-60
How it was run: as §1

MOLM-13 [13] = test system: MOLM-13
How it was run: as §1

THP-1 [14] = test system: THP-1
How it was run: as §1

HEL [15] = test system: HEL
How it was run: as §1

MV4-11 [16] = test: cell viability (% survival relative to DMSO control, bortezomib = 0%); higher = less cytotoxic
How it was run: (§2)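 Fifteen myeloid leukaemia cell lines were exposed to compounds at 1, 10, 100, 1000 or 10000 nM in 384-well plates for 72 h at 37 °C and 5% CO2. Viability was read by CellTiter-Glo luminescence and normalised, with vehicle as 100% and a 10 µM positive control as 0%. Values are percent survival averaged over duplicates.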

K-562 [17] = test: as above
How it was run: as §2

NOMO-1 [18] = test: as above
How it was run: as §2

ML-2 [19] = test: as above
How it was run: as §2

KCL-22 [20] = test: as above
How it was run: as §2

KG-1 [21] = test: as above
How it was run: as §2

LAMA-84 [22] = test: as above
How it was run: as §2

KU-812 [23] = test: as above
How it was run: as §2

SHI-1 [24] = test: as above
How it was run: as §2

Mono-Mac-6 [25] = test: as above
How it was run: as §2

BV-173 [26] = test: as above
How it was run: as §2

HL-60 [27] = test: as above
How it was run: as §2

MOLM-13 [28] = test: as above
How it was run: as §2

THP-1 [29] = test: as above
How it was run: as §2

HEL [30] = test: as above
How it was run: as §2

Cc1cc2c(C(C)C)c(O)c(O)c(C=O)c2c(O)c1-c1c(C)cc2c(C(C)C)c(O)c(O)c(C=O)c2c1O [Gossypol]
Conditions	IC50 (cell viability) [nM]
BV-173 [11]	1600
HEL [15]	3550
HL-60 [12]	3870
K-562 [2]	3670
KCL-22 [5]	2860
KG-1 [6]	3570
KU-812 [8]	2410
LAMA-84 [7]	3340
ML-2 [4]	2100
MOLM-13 [13]	2980
MV4-11 [1]	3430
Mono-Mac-6 [10]	2810
NOMO-1 [3]	2880
SHI-1 [9]	6250
THP-1 [14]	2540

cell viability [%]
Conditions	1 nM	10 nM	100 nM	1000 nM	10000 nM
BV-173 [26]	95.8	90	98.8	68.3	0.788
HEL [30]	101	104	101	108	0.902
HL-60 [27]	107	108	111	117	0.854
K-562 [17]	94.6	103	91	110	1.45
KCL-22 [20]	105	101	116	92.7	2.21
KG-1 [21]	95.8	98.9	105	101	5.89
KU-812 [23]	95	94.2	105	86.1	0.646
LAMA-84 [22]	95.2	106	104	103	0.378
ML-2 [19]	103	103	105	82.6	0.171
MOLM-13 [28]	104	97.6	95.2	97.1	-0.453
MV4-11 [16]	97.7	91.2	93.6	104	-0.358
Mono-Mac-6 [25]	94.6	85.5	112	91.8	0.586
NOMO-1 [18]	97.2	97.5	104	94.1	0.946
SHI-1 [24]	101	106	105	98.2	28
THP-1 [29]	95.3	90.3	96.6	84.4	0.727

CC(C)(C)c1ccc(S(=O)(=O)NCc2ccc(C(=O)Nc3cccnc3)cc2)cc1 [STF-31]
Conditions	IC50 (cell viability) [nM]
BV-173 [11]	38.3
HEL [15]	73.8
HL-60 [12]	143
K-562 [2]	242
KCL-22 [5]	437
KG-1 [6]	144
KU-812 [8]	109
LAMA-84 [7]	169
ML-2 [4]	228
MOLM-13 [13]	3570
MV4-11 [1]	45.1
Mono-Mac-6 [10]	548
NOMO-1 [3]	74
SHI-1 [9]	> 10000
THP-1 [14]	> 10000

cell viability [%]
Conditions	1 nM	10 nM	100 nM	1000 nM	10000 nM
BV-173 [26]	96.3	111	3.51	0.776	0.807
HEL [30]	107	119	35.3	3.71	2.64
HL-60 [27]	102	169	65.7	-0.0172	0.631
K-562 [17]	109	103	82.2	11.9	3.63
KCL-22 [20]	85	80	98.4	9.33	1.6
KG-1 [21]	147	137	72.6	19.7	18.4
KU-812 [23]	91.8	107	58.6	14.2	7.98
LAMA-84 [22]	97.5	94.6	68.8	6.82	2.61
ML-2 [19]	95.8	101	83.5	3.23	0.455
MOLM-13 [28]	111	154	96.6	109	0.127
MV4-11 [16]	98	139	3.11	0.253	0.177
Mono-Mac-6 [25]	107	114	105	36.9	31
NOMO-1 [18]	102	95.7	40.1	6.08	0.284
SHI-1 [24]	89.7	118	108	101	57.4
THP-1 [29]	101	95.9	101	103	110
